Experimental data from US7671080B2, “1-benzylindole-2-carboxamide derivatives” (N.V. Organon, priority 2005, dated 2010).

Molecular target: T1, human cannabinoid CB1 receptor (Homo sapiens, UniProt P21554)
T1 construct: expressed in transfected cells; co-transfected with AP1-luciferase reporter
Assay: In-vitro determination of efficacy and potency at the human CB1 receptor expressed in CHO cells (AP1-luciferase reporter, antagonism of CP-55,940)
Type: cell-based
Procedure: In-Vitro Determination of Efficacy and Potency at the Human CB1 Receptor Expressed in CHO Cells
Chinese hamster ovary (CHO) cells, which stably express the human cannabinoid CB1 receptor were co-transfected with a luciferase reporter gene which is under the regulatory control of an AP1-response element (AP1 luc). The cells were suspended in commercially available DMEM/F12 nut mix without phenol red, containing penicillin/streptomycin (50 U/50 μg/ml) and fungizone (1 μg/ml) before being seeded into white walled, white bottomed 96 well plates at a density of 3×10^4 cells per well (100 μl final volume) and incubated overnight (approximately 18 hrs at 37° C., 5% CO2 in air) prior to assay.
10 μl of each dilution was added to the relevant wells in the cell plate to give a final concentration range of 10 μM to 0.1 nM.
Plates were incubated for 5 hours at 37° C. before addition of 100 μl LucLite reagent to each well (reconstituted as per manufacturer's instructions). Plates were sealed with Top Seal and counted on the Packard TopCount (single photon counting, 0.01 minute count time, no count delay).
Following stimulation of the CB1 receptor, luciferase expression is enhanced and this can be measured as an increase in enzyme activity. This reporter system is therefore used as a functional test to evaluate the potency of antagonist compounds at the CB1 receptor. Data was analysed using curve fitting and a minimum sum of squares method to produce pEC50 values.

T1 sequence (P21554 whole entry): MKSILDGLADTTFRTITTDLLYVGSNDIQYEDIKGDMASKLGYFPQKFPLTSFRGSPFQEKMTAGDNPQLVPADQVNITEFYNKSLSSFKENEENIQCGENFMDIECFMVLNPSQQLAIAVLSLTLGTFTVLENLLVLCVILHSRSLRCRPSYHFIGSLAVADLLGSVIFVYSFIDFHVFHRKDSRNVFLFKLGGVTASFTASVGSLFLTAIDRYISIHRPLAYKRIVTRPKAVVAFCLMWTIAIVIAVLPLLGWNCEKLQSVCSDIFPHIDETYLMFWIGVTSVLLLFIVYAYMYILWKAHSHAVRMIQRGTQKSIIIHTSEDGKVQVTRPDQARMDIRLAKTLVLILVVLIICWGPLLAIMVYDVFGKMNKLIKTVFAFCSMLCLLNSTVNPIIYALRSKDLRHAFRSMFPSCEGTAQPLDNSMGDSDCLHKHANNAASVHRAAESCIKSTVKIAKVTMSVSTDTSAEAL

Compound	IC50 [nM]
N#Cc1ccc2c(c1)cc(C(=O)NC[C@H]1CCCC[C@@H]1O)n2Cc1cccc(OC(F)(F)F)c1 (relative stereo) [Example 34, trans-5-Cyano-1-(3-trifluoromethoxybenzyl)-1H-indole-2-carboxylic acid (2-hydroxy-cyclohexylmethyl)amide]	< 1
CN1CCN(c2cccc(Cn3c(C(=O)NC[C@H]4CCCC[C@@H]4O)cc4cc(C#N)ccc43)c2)CC1 (relative stereo) [Example 47, trans-5-Cyano-1-[3-(4-methyl-piperazin-1-yl)-benzyl]-1H-indole-2-carboxylic acid (2-hydroxy-cyclohexylmethyl)amide]	10 to 100
N#Cc1ccc2c(c1)cc(C(=O)N[C@@H]1CCC[C@H]1O)n2Cc1cccc(OC(F)(F)F)c1 (relative stereo) [Example 54, trans-5-Cyano-1-(3-trifluoromethoxybenzyl)-1H-indole-2-carboxylic acid (2-hydroxy-cyclopentyl)amide]	1 to 10
CC(C)OCCCNC(=O)c1cc2cc(Cl)ccc2n1Cc1cccc(OC(F)(F)F)c1 [Example 15, 5-Chloro-1-(3-trifluoromethoxybenzyl)-1H-indole-2-carboxylic acid (3-isopropoxypropyl)amide]	10 to 100
COc1ccc(OC(F)(F)F)cc1Cn1c(C(=O)NCC(C)(C)CO)cc2cc(C#N)ccc21 [Example 22, 5-Cyano-1-(2-methoxy-5-trifluoromethoxybenzyl)-1H-indole-2-carboxylic acid (3-hydroxy-2,2-dimethylpropyl)amide]	1 to 10
N#Cc1ccc2c(c1)cc(C(=O)NCC1(O)CCCCC1)n2Cc1cccc(OC(F)(F)F)c1 [Example 60, 5-Cyano-1-(3-trifluoromethoxybenzyl)-1H-indole-2-carboxylic acid (1-hydroxy-cyclohexylmethyl)amide]	1 to 10
Cc1ccc(C(F)(F)F)cc1Cn1c(C(=O)NCCC(C)(C)O)cc2cc(C#N)ccc21 [Example 64, 5-Cyano-1-(2-methyl-5-trifluoromethylbenzyl)-1H-indole-2-carboxylic acid (3-hydroxy-3-methylbutyl)amide]	1 to 10
N#Cc1ccc2c(c1)cc(C(=O)NCC1(O)CCCC1)n2Cc1cccc(OC(F)(F)F)c1 [Example 65, 5-Cyano-1-(3-trifluoromethoxybenzyl)-1H-indole-2-carboxylic acid (1-hydroxy-cyclopentylmethyl)amide]	1 to 10
N#Cc1ccc2c(c1)cc(C(=O)NCC1(CO)CCCC1)n2Cc1cccc(OC(F)(F)F)c1 [Example 68, 5-Cyano-1-(3-trifluoromethoxybenzyl)-1H-indole-2-carboxylic acid (1-hydroxymethyicyclopentylmethyl)amide]	< 1
CC(O)(CCNC(=O)c1cc2cc(C#N)ccc2n1Cc1cccc(OC(F)(F)F)c1)C(F)(F)F (stereo not shown) [Example 71, 5-Cyano-1-(3-trifluoromethoxybenzyl)-1H-indole-2-carboxylic acid (4,4,4-trifluoro-3-hydroxy-3-methylbutyl)amide]	1 to 10
